Test results as given in article PMC11915835, “Enhancing the solubility of SARS-CoV-2 inhibitors to increase future prospects for clinical development” (Journal of Virology, 2025).
Like-named read-outs stand apart in the source and are kept apart here.

Key:
[1] = Chemical stability in PBS by UPLC; assay type: physicochemical; conditions: room temperature; for Integrity during the solubility study: up to 168 h, UPLC, 220 nm; for Peptide degradation after incubation in PBS: 2 weeks, UPLC 220 nm, disulfide peak after 1 day removed by TCEP
[2] = pH 7.4
[3] = system: SARS-CoV-2 S BA.5; assay type: cell-based; conditions: for IC50: read-out: IC50, inhibition of S-mediated cell–cell fusion, SARS-CoV-2 BA.5; for IC90: read-out: IC90, inhibition of S-mediated cell–cell fusion, SARS-CoV-2 BA.5
[4] = biological target: SARS-CoV-2 tHRN peptide (44 residues) (Severe acute respiratory syndrome coronavirus 2, UniProt P0DTC2); assay type: binding
[5] = biological target: SARS-CoV-2 HRN peptide (55 residues) (Severe acute respiratory syndrome coronavirus 2, UniProt P0DTC2); assay type: binding; conditions: pH 7.4

| Compound | Integrity during the solubility study [1] | Solubility relative to HRC-L [2] | IC50 [3] | Peptide degradation after incubation in PBS [1] | Tm of 1:1 mixture with tHRN ([4]; 5-95 °C) | Temperature above which disruption of the helical assembly with HRN is detectable [5] | IC90 [3] | also measured |
| --- | --- | --- | --- | --- | --- | --- | --- | --- |
| Ac-DISQINASVVNIEYEIKKLEEVAKKLEESLIDLQELGSGSGC-NH2 [QE-L] | remained intact | ~ two-fold |  |  |  |  |  |  |
| Ac-PDVDLGDISQINASVVNIEYEIKKLEEVAKKLEESLIDLQEL-NH2 [QE-EXT] |  |  | 5.6 ± 0.72 nM |  |  |  |  |  |
| Ac-SIDQINATFVDIEYEIKKLEEVAKKLEESYIDLKEL-NH2 [SK] |  |  | 6.2 ± 1.1 nM | No peptide degradation was observed | 72 +/- 0.3 °C | > 70 °C | 14 ± 2 nM |  |
| CC[C@H](C)[C@H](NC(=O)[C@H](C)NC(=O)[C@H](CCC(=O)O)NC(=O)[C@H](CCC(=O)O)NC(=O)[C@H](CC(C)C)NC(=O)[C@H](CCCCN)NC(=O)[C@H](CCCCN)NC(=O)[C@H](CCSC)NC(=O)[C@H](CCC(=O)O)NC(=O)[C@H](Cc1ccc(O)cc1)NC(=O)[C@H](CCC(=O)O)NC(=O)[C@H](CC(C)C)NC(=O)[C@H](CC(=O)O)NC(=O)[C@H](CC(C)C)NC(=O)[C@H](Cc1ccccc1)NC(=O)[C@@H](NC(=O)[C@@H](NC(=O)[C@H](CC(N)=O)NC(=O)[C@@H](NC(=O)[C@H](CCC(N)=O)NC(=O)[C@H](CC(=O)O)NC(=O)[C@H](CC(C)C)NC(=O)[C@H](CO)NC(C)=O)[C@@H](C)CC)C(C)C)[C@@H](C)O)C(=O)N[C@@H](CCCCN)C(=O)N[C@@H](CCCCN)C(=O)N[C@@H](CC(C)C)C(=O)N[C@@H](CCC(=O)O)C(=O)N[C@@H](CCC(=O)O)C(=O)N[C@@H](CO)C(=O)N[C@@H](Cc1ccc(O)cc1)C(=O)N[C@H](C(=O)N[C@@H](CC(=O)O)C(=O)N[C@@H](CC(C)C)C(=O)N[C@@H](CCCCN)C(=O)N[C@@H](CCC(=O)O)C(=O)N[C@@H](CC(C)C)C(N)=O)[C@@H](C)CC [EK1, reference compound] |  |  |  |  |  |  |  | Tm of 1:1 mixture with tHRN ([4]; pH 7.4): 38 ± 0.3 °C |
| Ac-DISQINASVVNIEYEIKKLEEVAKKLEESLIDLQEL-NH2 [QE] |  |  | 7 ± 2.1 nM | No peptide degradation was observed | 65 +/- 0.5 °C | > 70 °C | 14 ± 4 nM |  |
| Ac-SIDQINATFVDIEYEIKKLEEVAKKLEESYIDLKELGSGSGC-NH2 [SK-L] | remained intact | ~ two-fold |  |  |  |  |  |  |
